{"source": "paper PMC3961306", "about": "“Comparison of the Cancer Gene Targeting and Biochemical Selectivities of All Targeted Kinase Inhibitors Approved for Clinical Use” (PLoS ONE, 2014)", "key": {"[1]": {"molecular_target": "panel of more than 300 wild-type and mutant kinases (313 kinase panel) (Homo sapiens, UniProt O95819)", "assay": "Kinase profiling in a biochemical assay panel (mobility shift assays and ELISA), %-inhibition at 1 μM; selectivity entropy", "settings": "1 µM"}, "[2]": {"molecular_target": "panel of more than 300 wild-type and mutant kinases (313 kinase panel) (Homo sapiens, UniProt Q9H2G2)", "assay": "Kinase profiling in a biochemical assay panel (mobility shift assays and ELISA), %-inhibition at 1 μM; selectivity entropy", "settings": "kinase SLK; 1 μM"}, "[3]": {"molecular_target": "T1, panel of more than 300 wild-type and mutant kinases (313 kinase panel) (Homo sapiens, UniProt Q96PF2)", "T1 sequence (Q96PF2 1-358)": "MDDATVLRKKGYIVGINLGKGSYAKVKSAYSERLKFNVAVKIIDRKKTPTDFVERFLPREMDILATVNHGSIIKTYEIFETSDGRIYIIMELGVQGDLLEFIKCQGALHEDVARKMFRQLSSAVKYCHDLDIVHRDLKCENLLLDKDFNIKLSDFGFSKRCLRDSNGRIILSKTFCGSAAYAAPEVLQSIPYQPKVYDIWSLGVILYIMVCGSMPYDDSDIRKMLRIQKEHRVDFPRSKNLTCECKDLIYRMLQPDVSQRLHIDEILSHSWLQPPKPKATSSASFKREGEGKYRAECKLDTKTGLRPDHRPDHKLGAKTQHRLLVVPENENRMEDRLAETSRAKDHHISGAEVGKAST", "assay": "Kinase profiling in a biochemical assay panel (mobility shift assays and ELISA), %-inhibition at 1 μM; selectivity entropy", "settings": "kinase TSSK2; 1 μM"}, "[4]": {"molecular_target": "panel of more than 300 wild-type and mutant kinases (313 kinase panel) (Homo sapiens, UniProt Q15303)", "sequence (Q15303 26-1308, change not shown)": "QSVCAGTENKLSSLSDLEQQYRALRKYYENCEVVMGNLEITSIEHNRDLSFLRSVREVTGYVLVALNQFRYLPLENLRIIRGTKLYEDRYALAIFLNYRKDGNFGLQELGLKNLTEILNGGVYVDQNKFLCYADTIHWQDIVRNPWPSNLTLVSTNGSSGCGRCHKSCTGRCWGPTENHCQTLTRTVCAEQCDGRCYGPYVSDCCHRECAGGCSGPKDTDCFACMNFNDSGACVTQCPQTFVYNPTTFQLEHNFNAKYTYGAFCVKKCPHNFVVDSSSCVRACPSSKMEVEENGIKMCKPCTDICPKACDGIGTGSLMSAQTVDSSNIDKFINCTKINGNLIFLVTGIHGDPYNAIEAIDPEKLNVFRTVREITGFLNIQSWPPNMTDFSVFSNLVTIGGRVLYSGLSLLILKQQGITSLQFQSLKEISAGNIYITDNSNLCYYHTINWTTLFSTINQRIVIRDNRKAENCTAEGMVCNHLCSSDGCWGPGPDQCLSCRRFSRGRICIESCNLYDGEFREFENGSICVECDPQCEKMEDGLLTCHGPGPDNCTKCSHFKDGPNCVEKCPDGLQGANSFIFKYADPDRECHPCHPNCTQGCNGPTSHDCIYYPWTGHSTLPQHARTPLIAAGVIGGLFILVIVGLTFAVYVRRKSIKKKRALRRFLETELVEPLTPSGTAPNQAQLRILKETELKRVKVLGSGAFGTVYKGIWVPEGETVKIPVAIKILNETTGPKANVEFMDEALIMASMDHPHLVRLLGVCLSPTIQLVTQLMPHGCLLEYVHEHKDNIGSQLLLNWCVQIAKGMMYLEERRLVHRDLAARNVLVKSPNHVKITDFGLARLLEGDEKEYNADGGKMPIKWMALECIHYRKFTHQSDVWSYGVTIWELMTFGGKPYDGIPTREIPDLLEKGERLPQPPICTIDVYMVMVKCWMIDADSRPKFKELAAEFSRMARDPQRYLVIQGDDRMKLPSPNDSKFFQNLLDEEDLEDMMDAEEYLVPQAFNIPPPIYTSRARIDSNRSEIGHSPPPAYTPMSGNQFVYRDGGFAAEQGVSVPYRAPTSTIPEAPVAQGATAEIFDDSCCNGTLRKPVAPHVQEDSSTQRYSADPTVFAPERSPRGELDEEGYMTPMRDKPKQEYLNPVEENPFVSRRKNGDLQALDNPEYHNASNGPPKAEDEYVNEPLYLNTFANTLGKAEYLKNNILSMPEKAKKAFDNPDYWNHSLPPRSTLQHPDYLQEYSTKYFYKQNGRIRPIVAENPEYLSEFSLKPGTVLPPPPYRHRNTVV", "assay": "Kinase profiling in a biochemical assay panel (mobility shift assays and ELISA), %-inhibition at 1 μM; selectivity entropy", "settings": "1 µM"}, "[5]": {"molecular_target": "panel of more than 300 wild-type and mutant kinases (313 kinase panel) (Homo sapiens, UniProt P29376)", "assay": "Kinase profiling in a biochemical assay panel (mobility shift assays and ELISA), %-inhibition at 1 μM; selectivity entropy", "settings": "kinase LTK; compound at 1 μM"}, "[6]": {"molecular_target": "panel of more than 300 wild-type and mutant kinases (313 kinase panel) (Homo sapiens, UniProt Q13177)", "assay": "Kinase profiling in a biochemical assay panel (mobility shift assays and ELISA), %-inhibition at 1 μM; selectivity entropy", "settings": "1 µM"}, "[7]": {"molecular_target": "T2, panel of more than 300 wild-type and mutant kinases (313 kinase panel) (Homo sapiens, UniProt O14920)", "T2 sequence (O14920 1-756)": "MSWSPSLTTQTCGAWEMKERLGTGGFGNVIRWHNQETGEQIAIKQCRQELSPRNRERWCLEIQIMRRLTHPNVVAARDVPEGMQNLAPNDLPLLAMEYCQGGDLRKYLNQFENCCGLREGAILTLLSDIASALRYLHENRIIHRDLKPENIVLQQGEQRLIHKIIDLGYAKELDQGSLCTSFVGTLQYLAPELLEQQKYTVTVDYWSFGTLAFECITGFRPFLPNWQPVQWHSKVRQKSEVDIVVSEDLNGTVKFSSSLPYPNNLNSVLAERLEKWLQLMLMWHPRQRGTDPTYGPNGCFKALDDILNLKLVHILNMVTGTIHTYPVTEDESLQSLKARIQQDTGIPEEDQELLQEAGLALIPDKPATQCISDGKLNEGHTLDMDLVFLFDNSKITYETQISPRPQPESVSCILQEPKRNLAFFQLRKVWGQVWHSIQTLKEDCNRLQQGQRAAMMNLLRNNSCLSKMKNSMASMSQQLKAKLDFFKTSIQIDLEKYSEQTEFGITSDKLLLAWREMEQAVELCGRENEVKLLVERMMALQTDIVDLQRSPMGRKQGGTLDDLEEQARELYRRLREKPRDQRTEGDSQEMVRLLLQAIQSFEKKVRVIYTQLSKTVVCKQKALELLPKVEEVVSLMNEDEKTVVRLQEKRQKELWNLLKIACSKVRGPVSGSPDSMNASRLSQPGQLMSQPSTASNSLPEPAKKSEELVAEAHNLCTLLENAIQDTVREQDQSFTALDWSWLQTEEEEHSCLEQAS", "assay": "Kinase profiling in a biochemical assay panel (mobility shift assays and ELISA), %-inhibition at 1 μM; selectivity entropy", "settings": "kinase IKKβ; compound at 1 μM"}, "[8]": {"molecular_target": "panel of more than 300 wild-type and mutant kinases (313 kinase panel) (Homo sapiens, UniProt Q9H1R3)", "assay": "Kinase profiling in a biochemical assay panel (mobility shift assays and ELISA), %-inhibition at 1 μM; selectivity entropy", "settings": "kinase skMLCK; 1 μM"}, "[9]": {"test_system": "forty-four human cancer cell lines", "assay": "Cell proliferation assay (ATPlite, 72 hours) in the 44 cell line Oncolines panel", "format": "cell-based", "settings": "Homo sapiens"}}, "note": "Where two headings read alike, the source gives them in different places.", "data": [{"smiles": "Cc1cn(-c2cc(NC(=O)c3ccc(C)c(Nc4nccc(-c5cccnc5)n4)c3)cc(C(F)(F)F)c2)cn1", "note": "[nilotinib]", "values": [{"measurement": "%-inhibition of HGK", "setting": "[1]", "value": 4, "unit": "%"}, {"measurement": "%-inhibition of SLK", "setting": "[2]", "value": -41, "unit": "%"}, {"measurement": "%-inhibition of TSSK2", "setting": "[3]", "value": 2.58, "unit": "%"}, {"measurement": "%-inhibition of HER4", "setting": "[4]", "value": 73, "unit": "%"}, {"measurement": "%-inhibition of LTK", "setting": "[5]", "value": 7.51, "unit": "%"}, {"measurement": "%-inhibition of PAK2", "setting": "[6]", "value": -40, "unit": "%"}, {"measurement": "%-inhibition of IKKβ", "setting": "[7]", "value": -1.78, "unit": "%"}, {"measurement": "%-inhibition of skMLCK", "setting": "[8]", "value": -14, "unit": "%"}, {"measurement": "IC50", "setting": "[9]; 4-4 cell, read-out: cell panel IC50, J82", "value": 6.33, "unit": "µM"}, {"measurement": "IC50", "setting": "[9]; 4-4 cell, read-out: cell panel IC50, PA-1", "value": 13.8, "unit": "µM"}, {"measurement": "IC50", "setting": "[9]; 4-4 cell, read-out: cell panel IC50, SJCRH30", "value": "> 31.6", "unit": "µM"}, {"measurement": "IC50", "setting": "[9]; 4-4 cell, read-out: cell panel IC50, SR", "value": 4.31, "unit": "µM"}, {"measurement": "IC50", "setting": "[9]; 769-P, read-out: cell panel IC50, 769-P", "value": "> 31.6", "unit": "µM"}, {"measurement": "IC50", "setting": "[9]; 786-0, read-out: cell panel IC50, 786-0", "value": 1.11, "unit": "µM"}, {"measurement": "IC50", "setting": "[9]; A 172, read-out: cell panel IC50, A-172", "value": 9.78, "unit": "µM"}, {"measurement": "IC50", "setting": "[9]; A204, read-out: cell panel IC50, A-204", "value": 0.584, "unit": "µM"}, {"measurement": "IC50", "setting": "[9]; A498, read-out: cell panel IC50, A-498", "value": 5.04, "unit": "µM"}, {"measurement": "IC50", "setting": "[9]; A549, read-out: cell panel IC50, A-549", "value": 7.29, "unit": "µM"}, {"measurement": "IC50", "setting": "[9]; A-375, read-out: cell panel IC50, A375", "value": 9.58, "unit": "µM"}, {"measurement": "IC50", "setting": "[9]; A-427, read-out: cell panel IC50, A-427", "value": 6.73, "unit": "µM"}, {"measurement": "IC50", "setting": "[9]; ACHN, read-out: cell panel IC50, ACHN", "value": 12.3, "unit": "µM"}, {"measurement": "IC50", "setting": "[9]; AN3-CA, read-out: cell panel IC50, AN3 CA", "value": 26.1, "unit": "µM"}, {"measurement": "IC50", "setting": "[9]; AU565, read-out: cell panel IC50, AU-565", "value": 4.63, "unit": "µM"}, {"measurement": "IC50", "setting": "[9]; BT-20, read-out: cell panel IC50, BT-20", "value": "> 31.6", "unit": "µM"}, {"measurement": "IC50", "setting": "[9]; BT-549, read-out: cell panel IC50, BT-549", "value": 3.33, "unit": "µM"}, {"measurement": "IC50", "setting": "[9]; BXPC-3, read-out: cell panel IC50, BxPC-3", "value": 10.1, "unit": "µM"}, {"measurement": "IC50", "setting": "[9]; C-33-A, read-out: cell panel IC50, C-33 A", "value": "> 31.6", "unit": "µM"}, {"measurement": "IC50", "setting": "[9]; CAL-27, read-out: cell panel IC50, CAL 27", "value": 9.84, "unit": "µM"}, {"measurement": "IC50", "setting": "[9]; CCRF-CEM, read-out: cell panel IC50, CCRF-CEM", "value": 6.74, "unit": "µM"}, {"measurement": "IC50", "setting": "[9]; DLD-1, read-out: cell panel IC50, DLD-1", "value": 7.3, "unit": "µM"}, {"measurement": "IC50", "setting": "[9]; FaDu, read-out: cell panel IC50, FaDu", "value": "> 31.6", "unit": "µM"}, {"measurement": "IC50", "setting": "[9]; HCT-15, read-out: cell panel IC50, HCT-15", "value": 6.17, "unit": "µM"}, {"measurement": "IC50", "setting": "[9]; HCT-116, read-out: cell panel IC50, HCT-116", "value": 5.75, "unit": "µM"}, {"measurement": "IC50", "setting": "[9]; Hs-578T, read-out: cell panel IC50, Hs 578T", "value": 7.43, "unit": "µM"}, {"measurement": "IC50", "setting": "[9]; Jurkat E6.1, read-out: cell panel IC50, Jurkat E6.1", "value": 11.8, "unit": "µM"}, {"measurement": "IC50", "setting": "[9]; K562, read-out: cell panel IC50, K-562", "value": 0.026, "unit": "µM"}, {"measurement": "IC50", "setting": "[9]; LS174T, read-out: cell panel IC50, LS 174T", "value": 6.11, "unit": "µM"}, {"measurement": "IC50", "setting": "[9]; LoVo, read-out: cell panel IC50, LoVo", "value": 7.46, "unit": "µM"}, {"measurement": "IC50", "setting": "[9]; MG-63, read-out: cell panel IC50, MG-63", "value": 8.78, "unit": "µM"}, {"measurement": "IC50", "setting": "[9]; MOLT-4, read-out: cell panel IC50, MOLT-4", "value": 4.36, "unit": "µM"}, {"measurement": "IC50", "setting": "[9]; MeWo, read-out: cell panel IC50, MeWo", "value": "> 31.6", "unit": "µM"}, {"measurement": "IC50", "setting": "[9]; NCI-H82, read-out: cell panel IC50, NCI-H82", "value": 31.2, "unit": "µM"}, {"measurement": "IC50", "setting": "[9]; NCI-H460, read-out: cell panel IC50, NCI-H460", "value": 6.49, "unit": "µM"}, {"measurement": "IC50", "setting": "[9]; OVCAR-3, read-out: cell panel IC50, OVCAR-3", "value": "> 31.6", "unit": "µM"}, {"measurement": "IC50", "setting": "[9]; RPMI-7951, read-out: cell panel IC50, RPMI-7951", "value": 7.78, "unit": "µM"}, {"measurement": "IC50", "setting": "[9]; SHP77, read-out: cell panel IC50, SHP-77", "value": "> 31.6", "unit": "µM"}, {"measurement": "IC50", "setting": "[9]; SK-N-AS, read-out: cell panel IC50, SK-N-AS", "value": 24, "unit": "µM"}, {"measurement": "IC50", "setting": "[9]; SW48, read-out: cell panel IC50, SW48", "value": "> 31.6", "unit": "µM"}, {"measurement": "IC50", "setting": "[9]; SW480, read-out: cell panel IC50, SW480", "value": 18, "unit": "µM"}, {"measurement": "IC50", "setting": "[9]; SW-620, read-out: cell panel IC50, SW620", "value": 5.3, "unit": "µM"}, {"measurement": "IC50", "setting": "[9]; U2OS, read-out: cell panel IC50, U-2 OS", "value": 5.38, "unit": "µM"}, {"measurement": "IC50", "setting": "[9]; U-87 MG, 72 h, read-out: IC50 in cell proliferation assay (table S5 cellpanel data)", "value": "> 31.6", "unit": "µM"}]}]}
